The text below walks through data of patent publication US11247970B2, “Selective inhibition of gluconeogenic activity” (Dana-Farber Cancer Institute, Inc., priority 2017, dated 2022).

Data set [1] concerns CREB, TORC2, Akt phosphorylation. The data set is described as follows: Western blot of glucagon and insulin signaling in hepatocytes. The format is cell-based, mouse. As to the method:
For measurement of acetylation, gene expression and glucose production SR-18292 ([…]) was added to cells overnight and fresh compound was added the following day for additional 3 h before collecting the cells (for total of ˜18 h treatment). Where insulin and glucagon stimulation were performed, the medium was changed to starvation medium (DMEM, 0.2% BSA, 2 mM sodium pyruvate, and 1% penicillin/streptomycin) with fresh compound for the last 3 h and cells were stimulated with either 100 nM insulin or 200 nM glucagon for an extra 1.5 h. For glucose measurements following PGC-1α over expression cells were incubated for the last 3 h in glucose-free medium (phenol-red/glucose free DMEM, 0.2% BSA, 2 mM sodium pyruvate and 20 mM sodium lactate or 10 mM glycerol in case glycerol was used as substrate). For glucose measurements following glucagon stimulation cells were incubated for the last 4 h in the same glucose-free medium that also contained glucagon (200 nM). The glucose level in the medium was measured using a glucose assay kit from Eton Bioscience Inc. by adding […] of assay buffer to […] of medium followed by 15 min incubation at 37° C. Absorbance was measured at 490 nm.
On the technique in general: A western blot detects proteins with antibodies after separation by electrophoresis.

Data set [2] concerns interaction of GCN5 with PGC-1α. The experiment in a line: Co-immunoprecipitation of PGC-1α with GCN5 in U-2 OS cells. Conditions: endogenous and ectopically expressed GCN5. Type of data set: cell-based. As to the method:
For PGC-1α acetylation detection in hepatocytes cells were infected with Ad-PGC-1α and Ad-GCN5. Cells were collected in RIPA buffer (containing protease inhibitor cocktail, 5 mM NaF, 5 mM β-glycerophosphate, 10 mM nicotinamide, 1 mM DTT and 1 μM trichostatin A). FLAG-HA-PGC-1α was immunoprecipitated overnight at 4° C. with FLAG beads (Sigma A2220). For GCN5 interaction with PGC-1α, U-2 OS cells were infected with Ad-PGC-1α. Nuclear extracts were obtained by lysing cell in Buffer A (10 mM HEPES-KOH (pH 7.9), 10 mM KCl, 1.5 mM MgCl2, 0.5 mM DTT, 0.25% IGEPAL (v/v), 5 mM NaF, 5 mM β-glycerophosphate, 5 mM sodium butyrate and 10 mM nicotinamide), supplemented with Protease Inhibitor Cocktail. Once cytoplasmic fractions were separated, nuclear pellets were lysed in Buffer B (20 mM HEPES-KOH (pH 7.9), 125 mM NaCl, 1 mM EDTA, 1 mM DTT, 1% IGEPAL (v/v), 10% glycerol (v/v), 5 mM NaF, 5 mM β-glycerophosphate, 5 mM sodium butyrate and 10 mM nicotinamide), supplemented with Protease Inhibitor Cocktail. FLAG-HA-PGC-1α was immunoprecipitated with FLAG beads overnight at 4° C. All beads were washed at last 3 times in lysis buffer before eluting in sample loading buffer.

A further data set deals with Pck1 and G6pc promoters. The data set is described as follows: Chromatin immunoprecipitation on Pck1 and G6pc in primary hepatocytes. Type of data set: cell-based, mouse.
The nature of data set [3]: Food intake and body weight of treated mice. Type of data set: in vivo. The protocol: (§1) All mice were purchased from Jackson laboratories and housed under a 12 h light/12 h dark cycle at 22° C. Before handling, mice were allowed to acclimate for at least 1 week in our animal facility. For in vivo studies with DIO mice, males 6-8 weeks old were fed HFD for the indicated time. For drug administration, SR-18292 was re-suspended in a 10% DMSO/10% Tween80/80% PBS solution at a final concentration of 6-12 mg/ml. Metformin was re-suspended in the same solution at a 20 mg/ml concentration. SR-18292 was injected via I.P. for 3 days between 4-5 pm and food was removed on day 3 at 5 pm. […] Metformin was administered via oral gavage. […] Insulin tolerance test was performed following the same dosing protocol, but mice were fasted for 4 hours after the forth injection before performing the test. Insulin was injected via I.P. (0.5 U/Kg) and blood glucose was measured every 20 minutes. Glycemia was measured by tail bleed using a glucometer (OneTouch). For all experiments, age- and body weight-matched animals were used. For protein, RNA extracts and biochemistry studies, livers were removed following each experiment and snap frozen in liquid nitrogen. For information on number of animals in each experiment please refer to FIGS. 4, 5 and S5 legends. All studies were performed according to protocols approved by Beth Israel Deaconess Medical Center's Animal Care and Use Committee.

The test system of data set [4] is DIO mice and Lep^ob/ob mice. The experiment in a line: Glucose tolerance test (GTT). Type of data set: in vivo. As to the method: as §1
The next data set has as its system HFD fed mice. The data set is described as follows: Insulin tolerance test (ITT). Type of data set: in vivo. Conditions: HFD 3 weeks. The protocol: as §1

Method for Pck1 and G6pc promoters: Primary hepatocytes were fixed in 1% formaldehyde for 10 minutes at room temperature. Crosslinking was quenched by adding glycine to a final concentration of 125 mM and rinsing twice with PBS. Cells were collected in PBS containing protease inhibitors followed by lysis in chromatin immunoprecipitation (ChIP) buffer (50 mM HEPES pH, 7.9; 140 mM NaCl; 1 mM EDTA; 1% Triton X-100; 0.1% NaDOC, 0.1% sodium dodecyl sulfate (SDS) and protease inhibitors). Chromatin was sheared by sonication with a Diagenode Biorupter for three cycles of 5 minutes (30 seconds on, 30 seconds off). Samples were clarified and chromatin immunoprecipitated overnight at 4° C. with the indicated antibody. Immune complexes were recovered with Protein A magnetic beads (Dynabeads; Novex, Life Technologies) preblocked with salmon sperm DNA (Invitrogen, Life Technologies). Following extensive washes, immunoprecipitated DNA was then isolated with a Chelex. Input DNA was prepared from 10% of respective chromatin prior to precipitation. Immunoprecipitated DNA and input DNA were analyzed by quantitative real-time PCR with primers specific for the indicated region. […] To further characterize the SR-18292-mediated inhibition of HNF4α transcriptional activity, chromatin immunoprecipitation (ChIP) assays were performed to examine the promoter occupancy of HNF4α on Pck1 and [MUT] promoters. Primary hepatocytes were treated with glucagon to induce gluconeogenic gene transcripts, and antibodies against HNF4α were used to IP chromatin fragments bound to this protein. […] Epigenetic changes accompany the response to glucagon in the fasted state, including an increase in activating H3K9 acetylation (H3K9Ac) and H3K4 trimethylation (H3K4Me3) of the Pck1 and [MUT] genes.

`Cc1ccc(CN(CC(O)COc2cccc3[nH]ccc23)C(C)(C)C)cc1` (stereo not drawn) [SR-18292, 1-((1H-indol-4-yl)oxy)-3-(tert-butyl(4-methylbenzyl)amino)propan-2-ol]: the “glucagon-induced phosphorylation of CREB and dephosphorylation of CRTC2” value in data set [1] (glucagon 200 nM) is “without disrupting”. In addition, the “cell autonomous enhancement of insulin signaling (Akt S473)” value in data set [1] (insulin 100 nM) is given as “not observed”. The “interaction of GCN5 with PGC-1α” value in data set [2] was “increased”. Also, in the data set with Pck1 and G6pc promoters, the FoxO1 promoter occupancy result is “not altered”; the “H3K9Ac and H3K4Me3 marks on the Pck1 gene” value is “reduced H3K9Ac and H3K4Me3 marks”. Further, the “glucagon-induced Pck1 and G6pc promoter occupancy by HNF4α” value in the data set on Pck1 and G6pc promoters (glucagon 200 nM) is listed as “significantly reduced”. Further, the food intake entry in data set [3] (first 48 hours of treatment) is reported as “neither food intake nor body weight were changed”. In addition, the body weight entry in data set [3] (mouse, in vivo) is listed as “neither food intake nor body weight were changed”. In addition, the glucose tolerance entry in data set [4] (DIO mice) is “significantly enhanced glucose tolerance”. For the same molecule, the glucose tolerance result in data set [4] (Lep^ob/ob mice) is “significantly enhanced glucose tolerance”. Moreover, in data set [4] (mouse, in vivo), the “insulin levels after GTT” value is “lower”. For the same molecule, the response to insulin result in the data set on HFD fed mice was “enhanced”.
